This note sets out measurements from patent US20250027130A1, “Nucleic Acid Synthesis and Sequencing Using Tethered Nucleoside Triphosphates” (The Regents of the University of California, priority 2022, published 2025).

Structures are written as SMILES.

Assay [1] relates to DH10B ΔaspC ΔtyrB harboring pMega-MaFRSA. The format is cell-based, E. coli. The note with it: samples viii-ix, TB, 1 mM substrate.
Assay [2] deals with DH10B cells co-expressing MaFRSA. The experiment in a line: In vivo incorporation at position 200 of sfGFP, MaFRSA (intact mass, GluC LC-MS/MS). The note with it: samples iv-v, DH10B, TB, 1 mM substrate. The format is cell-based, E. coli.

As for `N[C@@H](Cc1cccc(C(F)(F)F)c1)C(=O)O` [Sample 20], the entries for the “sfGFP containing variant 20 at position 200” value in assay [1] and in assay [2] were 98.19% and 98.73%, respectively.
Regarding `N[C@@H](Cc1cccc(C(F)(F)F)c1)C(=O)O` [Substrate 20], in assay [1], the “sfGFP containing variant 1 at position 200” value was 0.00%, the “sfGFP containing variant 2 at position 200” value was 0.00%, the “sfGFP containing variant 21 at position 200” value stood at 0.65% and the “sfGFP containing variant A at position 200” value was 0.02%. Also, in assay [1], the “sfGFP containing variant F at position 200” value is reported as 0.34%, the “sfGFP containing variant K at position 200” value turned out to be 0.01%, the “sfGFP containing variant Q at position 200” value was found to be 0.07% and the “sfGFP containing variant W at position 200” value is 0.12%. The “sfGFP containing variant Y at position 200” value in assay [1] is on record as 0.60%. In assay [2], the “sfGFP containing variant 1 at position 200” value is recorded as 0.00%, the “sfGFP containing variant 2 at position 200” value is recorded as 0.00%, the “sfGFP containing variant 21 at position 200” value was 0.32% and the “sfGFP containing variant A at position 200” value was found to be 0.03%. In assay [2], the “sfGFP containing variant F at position 200” value was determined as 0.34%, the “sfGFP containing variant K at position 200” value came to 0.02%, the “sfGFP containing variant Q at position 200” value was found to be 0.11% and the “sfGFP containing variant W at position 200” value is recorded as 0.17%. Besides, in assay [2], the “sfGFP containing variant Y at position 200” value is on record as 0.28%.
